Results: US6462055B2, “Alpha-methylbenzyl-containing thiourea inhibitors of herpes viruses containing a phenylenediamine group” (Wyeth, priority 1998, dated 2002)
Converted amounts (≈) assume the structure as drawn.

Assays:
[1] = test system: HCMV recombinant mutant virus (RV145); experiment: microbe, parasite or virus in culture; format: cell-based, human cytomegalovirus; settings: for IC50: Human betaherpesvirus 5, read-out: IC50 ug/ml HCMV, HCMV
Summary of the method: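 Read-out is beta-glucuronidase activity in cell lysates 96 h after infection, measured colorimetrically or fluorometrically. Reporter virus RV145 expresses the enzyme under a viral promoter in human foreskin fibroblasts treated with inhibitor.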

[2] = test system: HSV-1; experiment: HSV Antiviral (ELISA) Assay in Vero cells; format: cell-based, herpes simplex virus type 1; settings: HSV-1, Vero cells; for IC50: Human alphaherpesvirus 1, read-out: IC50 (ug/ml) HSV
Summary of the method: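 Viral replication was quantified by cell-fixed ELISA for HSV glycoprotein D, using a β-galactosidase reporter and fluorogenic umbelliferyl substrate, about 24 h after HSV-1 infection (MOI 0.006) of Vero cells. Compounds, at several concentrations, were added 30 min pre-infection. IC50 was derived from fluorescence relative to the compound-free signal.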

[3] = test system: VZV strain Ellen; experiment: VZV Antiviral (ELISA) Assay in human foreskin fibroblast cells; format: cell-based, varicella-zoster virus; settings: for IC50 / inhibition at 10 µg/mL: Human alphaherpesvirus 3, Fibroblast; for IC50: read-out: IC50 (ug/ml) VZV; for inhibition at 10 µg/mL: read-out: % inhibition 10 ug/ml VZV, 10 ug/ml
Summary of the method: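 Cell-based VZV (Ellen) spread assay in HFF, 3-day compound exposure in 2% FBS medium. Viral antigen quantified by fluorescent β-galactosidase ELISA; IC50 from inhibition of signal.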

Row | Compound | IC50 ug/ml HCMV [1] | IC50 (ug/ml) HSV [2] | IC50 (ug/ml) VZV [3] | % inhibition 10 ug/ml VZV [3] | IC50 [1] | IC50 [2] | IC50 [3] | inhibition at 10 µg/mL [3]
1 | CS(=O)(=O)c1ccc(NC(=S)Nc2ccc(NC(=O)c3c(F)cccc3F)cc2)cc1Cl [Example 393] | 0.5 µg/mL (≈ 1.01 µM) | >10 µg/mL | >10 µg/mL | 62% | – | – | – | –
2 | N-{4-[3-(3-Chloro-4-methoxy-phenyl)-thioureido]-phenyl}-4-methoxy-benzamide [Example 821] | 1 µg/mL | 0.15 µg/mL | >10 µg/mL | 55% | – | – | – | –
3 | COc1cc(OC)c(NC(=S)Nc2ccc(NC(=O)c3cccc(OCc4ccccc4)c3)cc2)cc1Cl [Example 210] | >10 µg/mL | 5 µg/mL (≈ 9.12 µM) | >10 µg/mL | 14% | – | – | – | –
4 | Cc1ccc(NC(=S)Nc2ccc(NC(=O)c3ccccc3F)cc2Cl)cc1Cl [Example 459] | >10 µg/mL | 0.12 µg/mL (≈ 0.268 µM) | >10 µg/mL | 25% | – | – | – | –
5 | Nc1nccc(-c2ccc(NC(=S)Nc3ccc(NC(=O)c4ccccc4F)cc3)cc2Cl)n1 [Example 502] | 1.8 µg/mL (≈ 3.65 µM) | >10 µg/mL | >10 µg/mL | 13% | – | – | – | –
6 | COc1cc(OC)c(NC(=S)Nc2ccc(NC(=O)c3ccccc3[N+](=O)[O-])cc2)cc1Cl [Example 143] | > 10 µg/mL | 1 µg/mL (≈ 2.05 µM) | >15 µg/mL | 68% | – | – | – | –
7 | COCCOc1ccc(NC(=S)Nc2ccc(NC(=O)c3ccccc3F)cc2)cc1Cl [Example 996, N-(4-{3-[3-Chloro-4-(2-methoxy-ethoxy)-phenyl]-thioureido}-phenyl)-2-fluoro-benzamide] | – | – | – | – | > 10 µg/mL | > 10 µg/mL | 10 µg/mL (≈ 21.1 µM) | –
8 | COc1cc(OC)c(NC(=S)Nc2ccc(NC(=O)c3cccc(OC(F)(F)F)c3)cc2)cc1Cl [Example 256] | 9 µg/mL (≈ 17.1 µM) | 2 µg/mL (≈ 3.8 µM) | >10 µg/mL | 15% | – | – | – | –
9 | COc1cc(OC)c(NC(=S)Nc2ccc(NC(=O)c3ccccc3Br)cc2)cc1Cl [Example 142] | – | – | – | – | 10 µg/mL (≈ 19.2 µM) | 0.4 µg/mL (≈ 0.768 µM) | > 15 µg/mL | 51%
10 | CN(C)c1ccc(Cl)cc1NC(=S)Nc1ccc(NC(=O)c2ccccc2F)cc1 [Example 490] | 2.5 µg/mL (≈ 5.64 µM) | 1 µg/mL (≈ 2.26 µM) | >10 µg/mL | 68% | – | – | – | –
11 | COc1cc(OC)c(NC(=S)Nc2ccc(NC(=O)c3ccccc3OC(C)=O)cc2)cc1Cl [Example 115] | 8 µg/mL (≈ 16 µM) | 4 µg/mL (≈ 8 µM) | 4 µg/mL (≈ 8 µM) | 98% | – | – | – | –
12 | Nc1c(Cl)cccc1NC(=S)Nc1ccc(NC(=O)c2c(F)cccc2F)cc1 [Example 465] | >10 µg/mL | >10 µg/mL | >10 µg/mL | 31% | – | – | – | –
13 | CC(C)C(NC(=S)Nc1ccc(NC(=O)c2ccccc2F)cc1)c1ccc(F)cc1 (centres unmarked) [Example 790] | 1.5 µg/mL (≈ 3.41 µM) | >10 µg/mL | 2.5 µg/mL (≈ 5.69 µM) | – | – | – | – | –
14 | Cc1cccc(C(C)NC(=S)Nc2ccc(NC(=O)c3ccccc3F)cc2)c1 (centres unmarked) [Example 776] | 0.9 µg/mL (≈ 2.21 µM) | >10 µg/mL | >7.5 µg/mL | – | – | – | – | –
15 | CC(C)CN(C)c1cc(NC(=S)Nc2ccc(NC(=O)c3ccccc3F)cc2)cc(C(F)(F)F)c1 [Example 596] | 2 µg/mL (≈ 3.86 µM) | >10 µg/mL | >10 µg/mL | – | – | – | – | –
16 | COc1cc(OC)c(NC(=S)Nc2ccc(NC(=O)c3ccccc3)cc2)cc1Cl [Example 122] | 4 µg/mL (≈ 9.05 µM) | 0.3 µg/mL (≈ 0.679 µM) | >10 µg/mL | 13% | – | – | – | –
17 | COc1cc(OC)c(NC(=S)Nc2ccc(NC(=O)c3cccc(F)c3)cc2)cc1Cl [Example 117] | 3 µg/mL (≈ 6.52 µM) | 0.3 µg/mL (≈ 0.652 µM) | >10 µg/mL | 15% | – | – | – | –
18 | CCOC(=O)Nc1cccc(C(=O)Nc2ccc(NC(=S)Nc3cc(Cl)c(OC)cc3OC)cc2)c1 [Example 180] | 1.5 µg/mL (≈ 2.84 µM) | 1.3 µg/mL (≈ 2.46 µM) | >10 µg/mL | 36% | – | – | – | –
19 | COc1ccc(NC(=S)Nc2ccc(NC(=O)c3ccccc3F)cc2)cc1Br [Example 811] | 3.1 µg/mL (≈ 6.54 µM) | 0.8 µg/mL (≈ 1.69 µM) | >7.5 µg/mL | – | – | – | – | –
20 | COc1cc(OC)c(NC(=S)Nc2ccc(NC(=O)c3cccc4ccccc34)cc2)cc1Cl [Example 157] | 8 µg/mL (≈ 16.3 µM) | 0.9 µg/mL (≈ 1.83 µM) | >10 µg/mL | 32% | – | – | – | –
21 | COc1cc(OC)c(NC(=S)Nc2ccc(NC(=O)c3cccc(OCCN(C)C)c3)cc2)cc1Cl [Example 257] | 7 µg/mL (≈ 13.2 µM) | 2.5 µg/mL (≈ 4.73 µM) | 2.5 µg/mL (≈ 4.73 µM) | 105% | – | – | – | –
22 | COc1cc(OC)c(NC(=S)Nc2ccc(NC(=O)c3c(F)c(F)c(F)c(F)c3F)cc2)cc1Cl [Example 193] | >10 µg/mL | 1.5 µg/mL (≈ 2.82 µM) | 3.8 µg/mL (≈ 7.14 µM) | 106% | – | – | – | –
23 | CC(NC(=S)Nc1ccc(NC(=O)c2ccccc2F)cc1)c1ccc(F)cc1 (centres unmarked) [Example 591] | – | – | – | – | 7 µg/mL (≈ 17 µM) | > 10 µg/mL | 1.5 µg/mL (≈ 3.65 µM) | –
24 | COc1ccc(NC(=S)Nc2ccc(NC(=O)c3ccccc3F)cc2)cc1C(F)(F)F [Example 998, 2-Fluoro-N-{4-[3-(4-methoxy-3-trifluoromethyl-phenyl)-thioureido]-phenyl}-benzamide] | – | – | – | – | > 10 µg/mL | 3 µg/mL (≈ 6.47 µM) | 5 µg/mL (≈ 10.8 µM) | –
25 | O=C(CN1CCCCCC1)Nc1ccc(NC(=S)Nc2ccc(NC(=O)c3ccccc3F)cc2)cc1Cl [Example 423] | 1 µg/mL (≈ 1.8 µM) | 4 µg/mL (≈ 7.22 µM) | 0.9 µg/mL (≈ 1.62 µM) | 87% | – | – | – | –
26 | CSc1ccc(NC(=S)Nc2ccc(NC(=O)c3ccccc3C)cc2)cc1Cl [Example 342] | 1.4 µg/mL (≈ 3.17 µM) | 0.2 µg/mL (≈ 0.452 µM) | >10 µg/mL | 62% | – | – | – | –
27 | O=C(Nc1ccc(NC(=S)Nc2ccc(Cl)cc2O)cc1)c1ccccc1F [Example 1001, N-{4-[3-(4-Chloro-2-hydroxy-phenyl)-thioureido]-phenyl}-2-fluoro-benzamide] | – | – | – | – | 2.6 µg/mL (≈ 6.25 µM) | 4.3 µg/mL (≈ 10.3 µM) | 3.6 µg/mL (≈ 8.66 µM) | –
28 | COc1ccccc1C(=O)Nc1ccc(NC(=S)NC(C)c2cc3ccccc3o2)cc1 (centres unmarked) [Example 1018, N-{4-[3-(1-Benzofuran-2-yl-ethyl)-thioureido]-phenyl}-2-methoxy-benzamide] | – | – | – | – | > 10 µg/mL | > 10 µg/mL | 0.09 µg/mL (≈ 0.202 µM) | –
29 | CN1CCC(N(C)c2ccc(NC(=S)Nc3ccc(NC(=O)c4ccccc4F)cc3)cc2Cl)CC1 [Example 855, N-[4-(3-{3-Chloro-4-[methyl-(1-methyl-piperidin-4-yl)-amino]-phenyl}-thioureido)-phenyl]-2-fluoro-benzamide] | – | – | – | – | 0.7 µg/mL (≈ 1.33 µM) | 2.5 µg/mL (≈ 4.75 µM) | > 10 µg/mL | 52%
